Results published in patent US6465466B1, “Uses of indolo-2 [2,3b] -quinoxalines” (priority 1995, dated 2002).
Values belong to the compound of their own block, whether it stands above or below them.

Columns and labels:
[1] = tested on: regeneration of liver tissue; test: In vivo toxicity: liver regeneration after partial hepatectomy (liver-somatic index); parameters: species or system rats
Experimental: The in vivo toxicity of B-220 was tested in rats. A portion of the liver was removed (partial hepatectomy, PH) by surgery and the regeneration of liver tissue was studied. The regeneration was measured as liver-somatic index (LSI), in other words, the relative liver weight in percent of the body weight.
AAF (2-acetylaminofluorene) is a very toxic substance which acts as a mito-inhibitor, i.e. inhibits cell division of normal liver cells.
The results are shown in FIG. 3 wherein LSI is plotted against days after partial hepatectomy.

bacterial strain TA 100 = test: Ames test, mutagenicity of MMS and EMS with and without B-220; assay type: cell-based, Salmonella; conditions: for mutagenicity of the mutagen alone (revertants/plate): TA 100, without B-220
Experimental: The following example illustrates the fact that compound B-220 reduces the mutagenicity of potent mutagens in the bacterial mutagenicity test, the “Ames test”. In the test the bacterial strain TA 100 was used. […] These mutagens were MMS=Methylmethanesulphonate and EMS=Ethylmethanesulphonate. The results of the experiments carried out are shown graphically in FIGS. 2a and 2b. In the Figures revertants/plate, is plotted against microgram MMS and EMS, respectively, plus 70 μg B-220.

test strain TA100 = test: Ames test, mutagenic potential of the substances, test strain TA100; assay type: cell-based, Salmonella; conditions: for anti-mutagenic potential (reduction of spontaneous background): TA100; for mutagenic potential (revertants/plate): TA100, with and without S9
Excerpt: This example illustrates the mutagenic potential in the bacterial mutagenicity test, “Ames test”, with test strain TA100, of B-220 (FIG. 1a) and 9-OH-B-220 (FIG. 1b). S9 indicates the presence […] or absence (−S9) of a cellular enzymatic fraction capable to metabolize the tested substances. The metabolic activation is a liver fraction containing enzymes needed in metabolism. In the Figures revertants/plate, an intensity measurement of mutagenic activity, is plotted against μg B-220 and μg 9-OH-B-220.

skin tumors = test: Skin tumor model, DMBA initiation and TPA promotion; assay type: in vivo, mice
Experimental: The compounds used according to the present invention have been tested as regards the formation of tumors (skin tumors) for mice subjected to strong tumor initiating and strong tumor promotion conditions. […] Furthermore, if the administration of the compound used according to the present invention is terminated, the animals will develop the same number of tumors as in the positive control. This means that the original DNA injury remains and the tumor promoter which is administered continuously can give rise to a considerable development of tumors. Accordingly a compound used according to the present invention can stop the tumor process caused by potent tumor promoting agents in combination with potent tumor initiators.
This example illustrates a tumor model which is based on in vivo tumor initiation with one does of dimethylbenzanthracene (DMBA) where after, a potent tumor promoter […] (TPA) was administered twice a week. After a number of weeks the skin tumors can be detected and followed during the study, After approximately 100 days (A) the positive controls reached the maximum, where after the total number declines due to the behavior of the animals. […] After six months exposure of B-220+TPA in the B-220 group, B-220 was no longer administered (B).

[2] = tested on: human cell cultures of phagocytes; test: Luminol chemiluminescence in human phagocyte cultures; assay type: cell-based; conditions: dose dependent; intracellular, also seen extracellular; same effect as salt and free base
Excerpt: In this test the effects of “B220” have been exposed to human cell cultures of phagocytes. Luminol reacts with the markers for oxidative stress, hydrogen peroxide or the superoxide ion, and generates light. […] “B220” has the same effect both in the form of salt and the free base.

[3] = Whole body gamma-irradiation of mice; assay type: in vivo
Experimental: Gamma-irradiation is a very potent agent which can induce oxidative stress, reduce body weight gain and shorten life span. In FIG. […] The human LD50 of gamma-irradiation os approximately 3 Gy.
“B220” was administered intra peritoneal in corn oil 24 and 3 h before the irradiation.
The body weight gain of each group is shown as percent of the body weight at the time of irradiation. A lower body weight gain is an indicator of a shorter life span in the long term perspective. Gamma-irradiation is a way to induce a premature aging which is also seen as gray fur in these mice.

[4] = tested on: 8-hydroxy-2'-deoxyguanosine (8-OH-dG); test: 8-OH-dG formation in DNA after oral 2,7-dinitrofluorene; assay type: in vivo; conditions: rats pre-treated with B220, 2,7-dNF orally
Excerpt: Oxidation of deoxyguanosine (dG), one of the bases in DNA, is an oxidative lesion of DNA related to oxidative stress. The reaction product between free radicals and dG is 8-hydroxy-2′-deoxyguanosine (8-OH-dG). This biomarker is a reaction product found in DNA, i.e. the oxidative stress is not only found as oxidants in the circulation or in the cytoplasm, but reaches the nucleus and reacts with DNA. In FIG. 8 results are shown when the urban air pollutant (result of incomplete combustion of fuels of vehicles) and carcinogen 2,7-dinitrofluorene (2,7-dNF) was administered orally to rats. In the metabolism, reactive intermediates were formed that oxidized dG to 8-OH-dG.

melting point: 269 to 270 °C
SMILES: CN(C)CCn1c2ccc(O)cc2c2nc3ccccc3nc21

SMILES: CC(=O)Nc1ccc2c(c1)Cc1ccccc1-2 [AAF, 2-acetylaminofluorene, reference compound]
regeneration of liver tissue (liver-somatic index, LSI) ([1]; rats, days after partial hepatectomy): very slow

SMILES: CCOS(C)(=O)=O [EMS, Ethylmethanesulphonate, reference compound]
mutagenicity of the mutagen alone (revertants/plate) (bacterial strain TA 100): strong mutagen

SMILES: Cc1cc2nc3c4cc(O)ccc4n(CCN(C)C)c3nc2cc1C [Example 9-OH-B-220, 2,3-Dimethyl-6-(2-dimethylaminoethyl)-9-hydroxy-6H-indolo[2,3-b]-quinoxaline]
anti-mutagenic potential (reduction of spontaneous background) (test strain TA100): anti-mutagenic | mutagenic potential (revertants/plate) (test strain TA100): non-mutagenic

SMILES: Cc1cc2nc3c4ccccc4n(CCN(C)C)c3nc2cc1C [Example B-220]
anti-mutagenic potential (reduction of spontaneous background) (test strain TA100): anti-mutagenic | mutagenic potential (revertants/plate) (test strain TA100): non-mutagenic | mutagenicity of EMS when B-220 is added (bacterial strain TA 100; TA 100, EMS plus 70 μg B-220): reduced the mutagenicity but not as much as for MMS | mutagenicity of MMS when B-220 is added (bacterial strain TA 100; TA 100, MMS plus 70 μg B-220): the mutagenicity disappears | regeneration of liver tissue (liver-somatic index, LSI) ([1]; rat, in vivo): no difference from the controls | toxic effects in vivo ([1]; rat, in vivo): did not show any toxic effects | skin tumors (skin tumors; after six months of B-220+TPA): very slight increase in tumors | skin tumors after B-220 no longer administered (skin tumors; after six months, TPA continued, B-220 stopped): rapid increase of tumors | skin tumors (skin tumors; approximately 100 days, B-220 one hour before TPA, DMBA-initiated): no tumors at all | carcinogenicity (skin tumors; skin tumor model): not a carcinogen | formation of hydrogen peroxide and superoxide ion generated by oxidase (chemiluminescence) [2]: down regulates and even eliminates | protective effect (life span) ([3]; 8 Gy, administration after irradiation): protective effect similar to pre-treatment | protective effect (increased life span) ([3]; 8 Gy, intra peritoneal in corn oil 24 and 3 h before irradiation): protective effect | protective effect (life span) ([3]; 14 Gy, intra peritoneal in corn oil 24 and 3 h before irradiation): no protective effect | body weight gain ([3]; lower doses, 1 and 6 Gy): increased body weight gain | oxidative stress (8-OH-dG in DNA) [4]: down-regulated to levels lower than the controls

SMILES: COS(C)(=O)=O [MMS, Methylmethanesulphonate, reference compound]
mutagenicity of the mutagen alone (revertants/plate) (bacterial strain TA 100): strong mutagen
